Patent EP4778933A1 (Chengdu Hyperway Pharmaceuticals Co., Ltd., priority 2023, dated 2025)
Read-outs that look alike come from different tables or passages of the source.

Legend:
[1] = In vivo pharmacokinetic test in mice; details: female BALB/c mice, single dose 30 mg/kg, plasma, 30 mg/kg
Procedure: Each test compound was administered orally once to female BALB/c mice for pharmacokinetic study. The test compounds were prepared on the day of administration. The oral administration solvent: 50 mM sodium citrate (pH 5.0) + 10% captisol. The oral administration was conducted in a dose of 30 mg/kg. The animals were fasted for 10-14 h before oral administration, and the feeding was resumed 4 h after administration. Pharmacokinetic samples were collected through the orbit. The collection time points were: 15 min, 30 min, 1 h, 2 h, 4 h, 6 h, 8 h and 24 h after administration. Three whole blood samples were collected at each time point, with a collection volume of about 0.2 mL, and anticoagulated with sodium heparin. After blood samples were collected, they were immediately placed on ice and centrifuged within 1 h to isolate plasma (centrifugation conditions: 8000 rpm, 1 min, 2-8°C). The collected plasma was stored in a -20°C refrigerator before analysis. The concentrations of compounds in the plasma samples were determined using an LC-MS/MS analysis method.

[2] = system: KRAS G12D-mediated ERK phosphorylation; assay: Inhibition of KRAS G12D-mediated ERK phosphorylation in AGS cells (in-cell pERK/GAPDH immunofluorescence); type: cell-based; details: AGS cells, 3 h incubation, read-out: Inhibitory activity on ERK phosphorylation (IC50) AGS-G12D
Method in brief: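 AGS, SW480, NCI H358 and KP2 cells were seeded overnight, then treated with compounds for 3 h at 37°C. After fixation, permeabilization and blocking, pERK and GAPDH were immunostained and read by two-colour infrared fluorescence. The pERK/GAPDH ratio was normalized to DMSO and 10 µM reference controls, and IC50 was fitted with a four-parameter logistic model.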

GP2D (KRASG12D) = assay: 3D cell proliferation inhibition test (CellTiter-Glo 3D, 7 days), GP2D; type: cell-based; details: 168 h, read-out: Inhibitory activity on cell proliferation (IC50) GP2D (KRASG12D)
Procedure: (§1) The diluted compounds to be tested were added to 384-well low-adhesion KRAS mutant types (such as GP2D, NCI H358, LoVo, RKN and KP2) of cell culture plates by using a nanoliter pipetting system (LABCYTE, P-0200). Then, the cells were plated and incubated in a 37°C, 5% CO2 incubator for 7 days. Afterward, CellTiter-Glo® 3D reagent was added, and the luminescent values were read by an Envision multifunctional microplate reader (the luminescent signal is proportional to the amount of ATP in the system, and the ATP content directly represents the number of viable cells in the system). Finally, the IC50 values (half-maximal inhibitory concentration) of the compounds were obtained by the XLFIT software using the nonlinear fitting formula.
(§2) • a) The diluted compounds to be tested were added to 384-well low-adhesion KRAS mutant types of cell culture plates by using a nanoliter pipetting system. • b) Cells were seeded into the 384-well plates in a) and then centrifuged at 1000 rpm for 1 min at room temperature, with a final DMSO concentration of compound being 0.5%. The plates were then incubated in a 5% CO2 constant-temperature incubator at 37°C for 7 days. • c) CellTiter-Glo® 3D was added to the 384-well cell culture plates in b), shaken in the dark, and incubated at room temperature. • d) The luminescence values were read by using an Envision multifunctional microplate reader.
The IC50 (half-maximal inhibitory concentration) values of the compounds were obtained by using XLFIT software according to the following nonlinear fitting formula: Y = Bottom + (Top−Bottom)/(1+10^(∧)((LogIC50−X)×HillSlope)) [formula] • X: log value of compound concentration. • Y: inhibition rate (%) [formula] • Negative control: DMSO. • Positive control: Medium only.

NCI H358 (KRAS G12C) = assay: 3D cell proliferation inhibition test (CellTiter-Glo 3D, 7 days), NCI H358; type: cell-based; details: Homo sapiens, NCI-H358, 168 h, read-out: Inhibitory activity on cell proliferation (IC50) NCI H358 (KRAS G12C)
Procedure: as §1
as §2, with “reader. […]” for “reader.”

KP2 (KRAS G12R) = assay: 3D cell proliferation inhibition test (CellTiter-Glo 3D, 7 days), KP2; type: cell-based; details: 168 h, read-out: Inhibitory activity on cell proliferation (IC50) KP2 (KRAS G12R)
Procedure: as §1
as §2, with “reader. […]” for “reader.”

LoVo (KRAS G13D) = assay: 3D cell proliferation inhibition test (CellTiter-Glo 3D, 7 days), LoVo; type: cell-based; details: Homo sapiens, 168 h, read-out: Inhibitory activity on cell proliferation (IC50) LoVo (KRAS G13D)
Procedure: as §1
as §2, with “reader. […]” for “reader.”

[3] = system: human ovarian cancer RKN mouse xenograft tumors; assay: In vivo drug efficacy, RKN subcutaneous xenograft tumor model; parameters: species or system Balb/c nude mice; details: 50 mg/kg, PO; for inhibitory effects on human ovarian cancer RKN mouse xenograft tumors: BID, 28 days; for Tumor volume inhibition rate (TGI): RKN xenograft, BID × 28, day 28
Procedure: A subcutaneous xenograft tumor model of human ovarian cancer RKN (derived from uterine leiomyosarcoma) cells was established in Balb/c nude mice. RKN tumor cells resuspended in Ham's F12 medium were inoculated subcutaneously on the right side of the experimental animals at 5×10^6 + gel/0.1 mL. When the tumor grew to about 150-200 mm^3, 20 animals having relatively uniform tumor volumes were selected for group administration, with a total of 4 groups, 5 animals in each group. On the day of the experiment, the animals were given the corresponding drugs according to the groups. The first group G1 was set as a solvent group, and 50 mM citrate buffer (pH 5.0) + 10% Captisol was given by gavage alone. The second group G2 was given a 50 mM citrate buffer (pH 5.0) + 10% Captisol of compound 21. The third group G3 was given a 50 mM citrate buffer (pH 5.0) + 10% Captisol of compound 26. The fourth group G4 was given a 50mM citrate buffer (pH 5.0) + 10% Captisol of compound 31. Table 7: Study on effect of test substances on animal tumor size in the human ovarian cancer RKN mouse xenograft tumor model
During the experiment, the body weight and tumor size of the animals were measured twice a week, and the clinical symptoms of the animals were observed and recorded every day. Each drug administration was based on the most recent weighing of the animals.
The tumor was measured with a digital vernier caliper to measure the length (a) and width (b). The tumor volume (TV) was calculated using the following formula: TV = a × b^2 /2. [formula]

AUC ([1]; oral) [µg·h/mL]	Cmax ([1]; oral) [µg/mL]	IC50 [2] [nM]	Compound	IC50 (GP2D (KRASG12D)) [nM]	IC50 (NCI H358 (KRAS G12C)) [nM]	IC50 (KP2 (KRAS G12R)) [nM]	IC50 (LoVo (KRAS G13D)) [nM]	inhibitory effects on human ovarian cancer RKN mouse xenograft tumors [3]	Tumor volume inhibition rate (TGI) [3] [%]	AUC ([1]; mouse, in vivo, po, read-out: AUC) [µg·h/mL]	Cmax ([1]; mouse, in vivo, po, read-out: Cmax) [µg/mL]	IC50 ([2]; Homo sapiens, AGS, 3 h) [nM]
20.953	5.124	1.9	CC1(O)COCCN(c2nc(OCC34CCCN3C(c3cc(F)c(F)c(F)c3)CC4)nc3c(F)c(-c4cccc5sc(N)c(C#N)c45)c(I)cc23)C1 (single isomer, unassigned) [Example 31, 2-amino-4-[6-iodo-8-fluoro-4-(6-hydroxy-6-methyl-1,4-oxazepan-4-yl)-2-({[3-(3,4,5-trifluorophenyl)-2,3,5,6,7,7a-hexahydro-1H-pyrrolizin-7a-yl]methyl}oxy)quinazolin-7-yl]benzo[b]thiophene-3-carbonitrile]	1.75	0.69	59.1	20.6	significant inhibitory effects	116			
			CC1(O)COCCN(c2nc(OCC34CCCN3C(c3cc(F)c(F)c(F)c3)CC4)nc3c(F)c(-c4cccc5sc(N)c(C#N)c45)c(Br)cc23)C1 (single isomer, unassigned) [Example 26, 2-amino-4-[6-bromo-8-fluoro-4-(6-hydroxy-6-methyl-1,4-oxazepan-4-yl)-2-({[3-(3,4,5-trifluoropheny 1)-2,3,5,6,7,7a-hexahydro-1H-pyrrolizin-7a-yl]methyl}oxy)quinazolin-7-yl]benzo[b]thiophene-3-carb onitrile]	2.99	1.03	56.6	14.2	significant inhibitory effects	116	15.8	4.88	2.7
